The text below walks through data of patent US9409952B2, “Peptide-compound cyclization method” (Chugai Seiyaku Kabushiki Kaisha, priority 2011, dated 2016).

Read-outs that look alike come from different tables or passages of the source. Starred links: 1 amine or outer side, 2 acyl side, 3 side chain; linkers in the order of their positions; H or OH if unused. Positions of bridges follow the written chain, without caps; N, C: chain ends. Non-standard residues stand in square brackets, D forms with d. Residues, ends and D or L forms follow the SMILES beside them. *: point of attachment. Phe(4-CF3) = N[C@@H](Cc1ccc(C(F)(F)F)cc1)C(=O)O; NMeF = CN[C@@H](Cc1ccccc1)C(=O)O; NMeI = CC[C@H](C)[C@H](NC)C(=O)O; NMeβAla = CN(CCC(=O)[*:2])[*:1]; NMeL = CN[C@@H](CC(C)C)C(=O)O; NMeA = CN[C@@H](C)C(=O)O; Piperidide = C1CCN(*)CC1; β3hA = C[C@H](N)CC(=O)O; NPrGly = CCCNCC(=O)O; Sar = CNCC(=O)O; tBu = CC(C)(C)*

The nature of data set [1]: PAMPA (parallel artificial membrane permeability assay). It is filed as in vitro ADME. Conditions: PAMPA. The method in brief:
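Artificial membrane was 10% (w/v) egg lecithin plus 0.5% (w/v) cholesterol in dodecane on a PVDF filter. A 10 mM DMSO stock was added at 0.5% (v/v) to donor buffer (50 mM MOPSO, pH 6.5, 5.0% glycocholic acid). After 18 h at 37 °C, LC/MS or LC/UV gave donor and acceptor levels for Pe.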

Data set [2] can be described thus: Metabolic stability in human hepatic microsome. In kind it is in vitro ADME. Conditions: microsomes.
[3] abbreviates: membrane permeation rate (Pe), 50 mM MOPSO buffer pH 6.5 with 5.0% glycocholic acid, 37° C., 18 hours, read-out: iPAMPA Pe.
The mark [4] stands for this setting: pH 7.4, human hepatic microsome, NADPH(+), read-out: CL NADPH(+).

On to `CC(C)C[C@@H]1NC(=O)[C@H](Cc2ccccc2)N(C)C(=O)CNC(=O)[C@H](Cc2ccccc2)NC(=O)[C@H]([C@@H](C)O)NC(=O)[C@H](CC(C)C)N(C)C(=O)CCN(C)C(=O)C[C@@H](C(=O)N2CCCCC2)NC(=O)[C@H](COC(C)(C)C)NC(=O)[C@H](CC(C)C)N(C)C1=O` [DP-335] ([NMeβAla][NMeL]TFG[NMeF]L[NMeL]S(tBu)D-Piperidide; lactam N-10), for which the Papp at 18 hours, 50 µM in data set [1] (setting [3]) was determined as 22 ×10⁻⁶ cm/s. In addition, the microsomal CLint at 1 uM in data set [2] (setting [4]) stood at 109 µL/min/mg.
Regarding `CCCN1CC(=O)N(C)[C@@H](Cc2ccccc2)C(=O)N[C@@H](C)C(=O)N(C)[C@@H](Cc2ccccc2)C(=O)N(C)[C@@H](CC(C)C)C(=O)N(C)[C@@H]([C@@H](C)CC)C(=O)N(C)[C@@H](CC(C)C)C(=O)N[C@H](C(=O)N2CCCCC2)CC(=O)N(C)CC(=O)N[C@@H](CC(C)C)C(=O)N[C@@H]([C@@H](C)O)C1=O` [DP-545] ([Sar]LT[NPrGly][NMeF]A[NMeF][NMeL][NMeI][NMeL]D-Piperidide; lactam N-11), the Papp at 18 hours, 50 µM in data set [1] (setting [3]) came out at 40 ×10⁻⁶ cm/s. In addition, in data set [2] (setting [4]), the microsomal CLint at 1 uM was found to be 36 µL/min/mg.
For `CC(C)C[C@H]1C(=O)N[C@H](C(=O)N2CCCCC2)CC(=O)N(C)[C@@H](C)C(=O)N(C)[C@@H](Cc2ccccc2)C(=O)N(C)[C@@H](CC(C)C)C(=O)N[C@@H]([C@@H](C)O)C(=O)N(C)CC(=O)N[C@@H](COC(C)(C)C)C(=O)N1C` [DP-697] ([NMeA][NMeF][NMeL]T[Sar]S(tBu)[NMeL]D-Piperidide; lactam N-8) the same measures were 35 ×10⁻⁶ cm/s and 87 µL/min/mg.
`CC(C)C[C@H]1C(=O)N(C)[C@@H](Cc2ccccc2)C(=O)N[C@@H]([C@@H](C)O)C(=O)N(C)[C@@H](C)C(=O)N(C)[C@@H](CC(C)C)C(=O)N[C@@H](C(C)C)C(=O)N(C)[C@@H](CC(C)C)C(=O)N[C@H](C(=O)N(C)[C@@H](Cc2ccccc2)C(=O)N[C@@H](C)C(=O)N2CCCCC2)CC(=O)N(C)CC(=O)N1C` [DP-202] ([Sar][NMeL][NMeF]T[NMeA][NMeL]V[NMeL]D[NMeF]A-Piperidide; lactam N-9): the Papp at 18 hours, 50 µM in data set [1] (setting [3]) was 55 ×10⁻⁶ cm/s. The microsomal CLint at 1 uM in data set [2] (setting [4]) was 134 µL/min/mg.
With `CC(C)C[C@@H]1NC(=O)[C@H](Cc2c[nH]cn2)NC(=O)[C@H](Cc2ccccc2)N(C)C(=O)[C@H](CC(C)C)NC(=O)[C@H](CC(C)C)N(C)C(=O)[C@H](Cc2ccccc2)NC(=O)[C@H](CC(C)C)N(C)C(=O)[C@H](CC(C)C)N(C)C(=O)[C@H](Cc2ccccc2)NC(=O)CN(C)C(=O)C[C@@H](C(=O)N(C)[C@@H](Cc2ccccc2)C(=O)N[C@@H](C)C(=O)N2CCCCC2)NC1=O` [DP-592] ([Sar]F[NMeL][NMeL]F[NMeL]L[NMeF]HLD[NMeF]A-Piperidide; lactam N-11), in data set [1] (setting [3]), the Papp at 18 hours, 50 µM was determined as 0.18 ×10⁻⁶ cm/s. Further, in data set [2] (setting [4]), the microsomal CLint at 1 uM came to 5 µL/min/mg.
For the compound `CC[C@H](C)[C@H]1C(=O)N[C@H](C(=O)N(C)[C@@H](Cc2ccccc2)C(=O)N[C@@H](C)C(=O)N2CCCCC2)CC(=O)N[C@@H](C)C(=O)N(C)[C@@H](Cc2ccccc2)C(=O)N(C)[C@@H](CC(C)C)C(=O)N[C@@H]([C@@H](C)O)C(=O)N(C)[C@@H](C)C(=O)N[C@@H](C(C)C)C(=O)N(C)[C@@H](CC(C)C)C(=O)N1C` [DP-305] (A[NMeF][NMeL]T[NMeA]V[NMeL][NMeI]D[NMeF]A-Piperidide; lactam N-9), the Papp at 18 hours, 50 µM in data set [1] (pH 6.5) was 35 ×10⁻⁶ cm/s. For the same compound, the microsomal CLint at 1 uM in data set [2] (human, pH 7.4, CL NADPH(+)) worked out at 700 µL/min/mg.
As for `CC[C@H](C)[C@@H]1NC(=O)[C@H](CC(C)C)N(C)C(=O)[C@H](C)NC(=O)CN(C)C(=O)[C@H](Cc2ccc(C(F)(F)F)cc2)NC(=O)[C@H]([C@@H](C)O)NC(=O)[C@H](CC(C)C)N(C)C(=O)CCN(C)C(=O)C[C@H](C)NC(=O)[C@H](CC(C)C)N(C)C(=O)[C@H](CC(C)C)N(C)C1=O` [DP-805] (cyclo(A[NMeL]I[NMeL][NMeL][β3hA][NMeβAla][NMeL]T[Phe(4-CF3)][Sar])), the Papp at 18 hours, 50 µM in data set [1] (setting [3]) was found to be 41 ×10⁻⁶ cm/s. For the same compound, in data set [2] (setting [4]), the microsomal CLint at 1 uM came to 169 µL/min/mg.
